Data set [1] concerns Influenza A virus. The data set is described as follows: Antiviral activity against influenza A virus A/PR/8/34 strain incubated with MDCK cells assessed as reduction of viral RNA level equal to 1% of control level after 72 hrs by branched DNA assay. The data set is classed as functional, organism-based. Conditions: A/Puerto Rico/8/1934(H1N1).
Data set [2] in a line: Dissociation constant, pKa of the compound by UC titration method. The class given is physicochemical.
Data set [3] concerns the target Phosphatidylinositol 4,5-bisphosphate 3-kinase catalytic subunit alpha isoform (Homo sapiens, UniProt P42336). The data set is described as follows: Inhibition of PI3Kalpha (unknown origin).
Data set [4] has as its target Cyclin-dependent kinase 2 (Homo sapiens, UniProt P24941). Kind of data set: Inhibition of CDK2 (unknown origin).
For data set [5], the target named is Mitogen-activated protein kinase 10 (Homo sapiens, UniProt P53779). Kind of data set: Inhibition of JNK3 (unknown origin).
Data set [6] addresses T1, Receptor-type tyrosine-protein kinase FLT3 (Homo sapiens, UniProt P36888).
T1 sequence (P36888 whole entry): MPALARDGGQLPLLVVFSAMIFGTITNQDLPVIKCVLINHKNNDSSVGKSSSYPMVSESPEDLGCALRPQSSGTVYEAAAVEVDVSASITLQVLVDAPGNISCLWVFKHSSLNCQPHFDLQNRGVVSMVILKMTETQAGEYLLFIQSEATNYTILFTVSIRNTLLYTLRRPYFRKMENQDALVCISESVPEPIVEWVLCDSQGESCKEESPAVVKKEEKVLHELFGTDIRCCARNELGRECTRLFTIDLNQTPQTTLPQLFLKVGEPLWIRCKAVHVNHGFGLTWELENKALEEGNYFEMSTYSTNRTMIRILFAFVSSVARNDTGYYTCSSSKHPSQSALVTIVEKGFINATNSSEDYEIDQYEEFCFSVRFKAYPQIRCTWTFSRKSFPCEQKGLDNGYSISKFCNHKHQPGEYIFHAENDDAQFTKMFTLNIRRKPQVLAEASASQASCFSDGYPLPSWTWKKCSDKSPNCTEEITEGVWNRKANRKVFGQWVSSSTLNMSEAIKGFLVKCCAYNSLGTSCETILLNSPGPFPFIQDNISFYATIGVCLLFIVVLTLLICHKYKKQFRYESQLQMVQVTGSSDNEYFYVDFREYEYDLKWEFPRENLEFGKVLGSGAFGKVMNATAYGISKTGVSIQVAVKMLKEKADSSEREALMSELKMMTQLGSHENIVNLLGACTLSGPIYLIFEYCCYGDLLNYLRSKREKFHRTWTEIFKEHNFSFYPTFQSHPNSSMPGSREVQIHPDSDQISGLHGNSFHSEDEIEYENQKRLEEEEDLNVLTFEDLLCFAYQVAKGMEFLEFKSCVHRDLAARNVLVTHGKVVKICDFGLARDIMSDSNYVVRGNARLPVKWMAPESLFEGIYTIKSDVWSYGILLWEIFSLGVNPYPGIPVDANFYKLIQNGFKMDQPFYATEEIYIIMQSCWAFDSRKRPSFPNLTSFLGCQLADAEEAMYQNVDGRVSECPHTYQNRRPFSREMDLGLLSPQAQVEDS
The data set is described as follows: Inhibition of FLT3 (unknown origin).

For data set [7], the target named is Tyrosine-protein kinase JAK2 (Homo sapiens, UniProt O60674). The data set is described as follows: Inhibition of JAK2 (unknown origin).
Data set [8] deals with Influenza A virus. Kind of data set: Antiviral activity against Influenza A virus A/PR/8/34 strain incubated with MDCK cells assessed as cell protection after 72 hrs by phenotypic cell protection assay. The data set is classed as functional, organism-based. Conditions: A/Puerto Rico/8/1934(H1N1).
Data set [9] deals with Tyrosine-protein kinase SYK (Homo sapiens, UniProt P43405). The data set is described as follows: Inhibition of SYK (unknown origin).
For data set [10], the target named is Vascular endothelial growth factor receptor 2 (Homo sapiens, UniProt P35968). Kind of data set: Inhibition of KDR (unknown origin).
Data set [11] concerns the target Phosphatidylinositol 4,5-bisphosphate 3-kinase catalytic subunit beta isoform (Homo sapiens, UniProt P42338). Kind of data set: Inhibition of PI3Kbeta (unknown origin).
For data set [12], the target named is T2, Phosphatidylinositol 4,5-bisphosphate 3-kinase catalytic subunit delta isoform (Homo sapiens, UniProt O00329).
T2 sequence (O00329 whole entry): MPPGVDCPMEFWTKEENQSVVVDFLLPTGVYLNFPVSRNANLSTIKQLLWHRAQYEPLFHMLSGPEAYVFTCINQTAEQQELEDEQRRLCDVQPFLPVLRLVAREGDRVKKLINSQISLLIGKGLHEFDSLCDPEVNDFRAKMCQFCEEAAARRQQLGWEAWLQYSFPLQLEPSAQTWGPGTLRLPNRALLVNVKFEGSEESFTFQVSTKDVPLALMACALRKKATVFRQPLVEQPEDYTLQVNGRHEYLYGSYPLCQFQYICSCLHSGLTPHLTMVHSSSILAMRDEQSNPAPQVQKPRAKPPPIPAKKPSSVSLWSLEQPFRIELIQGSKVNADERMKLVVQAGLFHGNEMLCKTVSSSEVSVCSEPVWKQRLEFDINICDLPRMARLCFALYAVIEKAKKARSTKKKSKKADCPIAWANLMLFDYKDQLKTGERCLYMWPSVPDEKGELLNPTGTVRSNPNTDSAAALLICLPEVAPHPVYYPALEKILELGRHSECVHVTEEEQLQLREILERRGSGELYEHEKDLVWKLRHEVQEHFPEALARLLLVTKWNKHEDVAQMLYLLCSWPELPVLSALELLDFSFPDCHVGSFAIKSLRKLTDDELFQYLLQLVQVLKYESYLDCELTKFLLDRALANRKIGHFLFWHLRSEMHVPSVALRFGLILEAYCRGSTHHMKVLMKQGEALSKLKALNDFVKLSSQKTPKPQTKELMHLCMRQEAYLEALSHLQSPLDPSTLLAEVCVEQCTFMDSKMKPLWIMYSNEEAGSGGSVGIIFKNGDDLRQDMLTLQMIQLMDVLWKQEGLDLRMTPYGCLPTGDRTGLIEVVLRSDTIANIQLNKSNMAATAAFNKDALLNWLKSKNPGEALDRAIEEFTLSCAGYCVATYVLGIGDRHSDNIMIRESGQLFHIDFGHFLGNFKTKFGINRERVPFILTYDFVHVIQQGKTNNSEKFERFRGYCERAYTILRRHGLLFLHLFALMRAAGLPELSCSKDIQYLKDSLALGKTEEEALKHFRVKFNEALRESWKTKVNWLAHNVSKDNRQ
Kind of data set: Inhibition of PI3Kdelta (unknown origin).

The target of data set [13] is Serine/threonine-protein kinase PLK1 (Homo sapiens, UniProt P53350). Kind of data set: Inhibition of PLK (unknown origin).
The target of data set [14] is cAMP-dependent protein kinase catalytic subunit alpha (Homo sapiens, UniProt P17612). The data set is described as follows: Inhibition of PKAa (unknown origin).
The target of data set [15] is Proto-oncogene tyrosine-protein kinase Src (Homo sapiens, UniProt P12931). Kind of data set: Inhibition of SRC (unknown origin).
The target of data set [16] is Phosphatidylinositol 4,5-bisphosphate 3-kinase catalytic subunit gamma isoform (Homo sapiens, UniProt P48736). The data set is described as follows: Inhibition of PI3Kgamma (unknown origin).
Data set [17] concerns the target T3, Interleukin-1 receptor-associated kinase 4 (Homo sapiens, UniProt Q9NWZ3).
T3 sequence (Q9NWZ3 whole entry): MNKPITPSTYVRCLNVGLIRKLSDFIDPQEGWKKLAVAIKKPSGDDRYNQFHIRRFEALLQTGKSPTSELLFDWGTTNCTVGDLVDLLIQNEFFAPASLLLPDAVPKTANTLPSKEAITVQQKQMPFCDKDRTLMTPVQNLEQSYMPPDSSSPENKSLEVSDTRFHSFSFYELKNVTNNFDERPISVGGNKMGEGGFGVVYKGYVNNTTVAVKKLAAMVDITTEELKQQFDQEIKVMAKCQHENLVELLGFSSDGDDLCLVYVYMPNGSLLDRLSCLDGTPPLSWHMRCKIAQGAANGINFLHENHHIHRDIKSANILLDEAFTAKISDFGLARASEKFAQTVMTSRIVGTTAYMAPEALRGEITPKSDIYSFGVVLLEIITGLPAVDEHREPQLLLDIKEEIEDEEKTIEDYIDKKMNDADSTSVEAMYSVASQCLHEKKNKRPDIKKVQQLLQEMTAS
The data set is described as follows: Inhibition of IRAK4 (unknown origin).

Data set [18] addresses Glycogen synthase kinase-3 (Homo sapiens, UniProt P49840+P49841). Kind of data set: Inhibition of GSK3 (unknown origin). The data set is classed as protein assay.
Data set [19] concerns the target Rho-associated protein kinase (Homo sapiens, UniProt O75116+Q13464). Kind of data set: Inhibition of ROCK (unknown origin). The class given is protein-complex assay.
Data set [20] concerns the target Hepatocyte growth factor receptor (Homo sapiens, UniProt P08581). The data set is described as follows: Inhibition of MET (unknown origin).

Sequence of Hepatocyte growth factor receptor (P08581 whole entry): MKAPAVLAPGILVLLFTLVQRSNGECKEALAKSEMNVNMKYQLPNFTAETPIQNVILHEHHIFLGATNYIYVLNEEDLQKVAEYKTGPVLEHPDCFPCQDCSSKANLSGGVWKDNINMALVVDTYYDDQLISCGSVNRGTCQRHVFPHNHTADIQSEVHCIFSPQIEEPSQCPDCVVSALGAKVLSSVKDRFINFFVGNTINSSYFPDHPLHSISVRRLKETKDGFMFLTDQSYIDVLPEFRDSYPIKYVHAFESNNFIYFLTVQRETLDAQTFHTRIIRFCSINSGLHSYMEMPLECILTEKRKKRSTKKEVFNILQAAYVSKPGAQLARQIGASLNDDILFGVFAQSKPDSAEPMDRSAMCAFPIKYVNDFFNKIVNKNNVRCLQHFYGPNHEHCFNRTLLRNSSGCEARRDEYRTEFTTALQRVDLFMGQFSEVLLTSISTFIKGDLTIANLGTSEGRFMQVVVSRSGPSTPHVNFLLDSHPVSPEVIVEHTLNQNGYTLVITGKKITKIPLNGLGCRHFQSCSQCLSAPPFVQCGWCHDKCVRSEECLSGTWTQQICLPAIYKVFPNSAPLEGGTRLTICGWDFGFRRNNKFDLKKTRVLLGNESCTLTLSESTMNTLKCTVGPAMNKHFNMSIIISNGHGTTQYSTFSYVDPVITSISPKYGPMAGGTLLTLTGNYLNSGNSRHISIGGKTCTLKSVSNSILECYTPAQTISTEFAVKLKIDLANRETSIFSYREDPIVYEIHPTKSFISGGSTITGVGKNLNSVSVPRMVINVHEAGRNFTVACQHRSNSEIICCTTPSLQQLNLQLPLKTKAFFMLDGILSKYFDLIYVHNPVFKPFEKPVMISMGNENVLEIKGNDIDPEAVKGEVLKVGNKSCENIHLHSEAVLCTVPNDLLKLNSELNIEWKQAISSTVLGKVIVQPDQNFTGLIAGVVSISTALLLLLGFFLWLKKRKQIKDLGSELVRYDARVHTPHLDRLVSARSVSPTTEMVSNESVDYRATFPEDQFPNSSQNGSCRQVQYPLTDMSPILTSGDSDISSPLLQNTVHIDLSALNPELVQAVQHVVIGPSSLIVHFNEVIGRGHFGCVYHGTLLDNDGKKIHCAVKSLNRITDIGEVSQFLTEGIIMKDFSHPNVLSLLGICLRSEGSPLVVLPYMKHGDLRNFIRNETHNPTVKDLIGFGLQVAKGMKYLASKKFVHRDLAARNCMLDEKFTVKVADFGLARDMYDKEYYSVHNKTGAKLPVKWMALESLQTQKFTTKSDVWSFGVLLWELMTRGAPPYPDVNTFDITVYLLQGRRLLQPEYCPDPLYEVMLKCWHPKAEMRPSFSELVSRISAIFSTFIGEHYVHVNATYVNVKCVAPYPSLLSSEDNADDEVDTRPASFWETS
Sequence of Proto-oncogene tyrosine-protein kinase Src (P12931 2-536 limits assumed): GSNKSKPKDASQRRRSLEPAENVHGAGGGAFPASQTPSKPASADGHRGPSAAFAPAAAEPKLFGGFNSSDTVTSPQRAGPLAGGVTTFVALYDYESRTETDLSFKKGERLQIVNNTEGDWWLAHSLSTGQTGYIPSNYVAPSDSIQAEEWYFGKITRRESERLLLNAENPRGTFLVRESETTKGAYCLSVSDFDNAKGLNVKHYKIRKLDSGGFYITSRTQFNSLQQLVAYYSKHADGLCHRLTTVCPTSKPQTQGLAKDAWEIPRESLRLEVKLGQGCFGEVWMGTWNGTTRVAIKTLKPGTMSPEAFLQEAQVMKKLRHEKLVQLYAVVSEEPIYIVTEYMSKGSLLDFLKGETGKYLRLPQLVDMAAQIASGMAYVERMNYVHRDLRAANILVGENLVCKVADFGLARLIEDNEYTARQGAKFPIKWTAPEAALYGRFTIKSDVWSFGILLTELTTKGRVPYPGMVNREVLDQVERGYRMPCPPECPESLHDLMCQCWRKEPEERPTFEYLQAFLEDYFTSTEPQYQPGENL
Sequence of Vascular endothelial growth factor receptor 2 (P35968 whole entry, canonical isoform): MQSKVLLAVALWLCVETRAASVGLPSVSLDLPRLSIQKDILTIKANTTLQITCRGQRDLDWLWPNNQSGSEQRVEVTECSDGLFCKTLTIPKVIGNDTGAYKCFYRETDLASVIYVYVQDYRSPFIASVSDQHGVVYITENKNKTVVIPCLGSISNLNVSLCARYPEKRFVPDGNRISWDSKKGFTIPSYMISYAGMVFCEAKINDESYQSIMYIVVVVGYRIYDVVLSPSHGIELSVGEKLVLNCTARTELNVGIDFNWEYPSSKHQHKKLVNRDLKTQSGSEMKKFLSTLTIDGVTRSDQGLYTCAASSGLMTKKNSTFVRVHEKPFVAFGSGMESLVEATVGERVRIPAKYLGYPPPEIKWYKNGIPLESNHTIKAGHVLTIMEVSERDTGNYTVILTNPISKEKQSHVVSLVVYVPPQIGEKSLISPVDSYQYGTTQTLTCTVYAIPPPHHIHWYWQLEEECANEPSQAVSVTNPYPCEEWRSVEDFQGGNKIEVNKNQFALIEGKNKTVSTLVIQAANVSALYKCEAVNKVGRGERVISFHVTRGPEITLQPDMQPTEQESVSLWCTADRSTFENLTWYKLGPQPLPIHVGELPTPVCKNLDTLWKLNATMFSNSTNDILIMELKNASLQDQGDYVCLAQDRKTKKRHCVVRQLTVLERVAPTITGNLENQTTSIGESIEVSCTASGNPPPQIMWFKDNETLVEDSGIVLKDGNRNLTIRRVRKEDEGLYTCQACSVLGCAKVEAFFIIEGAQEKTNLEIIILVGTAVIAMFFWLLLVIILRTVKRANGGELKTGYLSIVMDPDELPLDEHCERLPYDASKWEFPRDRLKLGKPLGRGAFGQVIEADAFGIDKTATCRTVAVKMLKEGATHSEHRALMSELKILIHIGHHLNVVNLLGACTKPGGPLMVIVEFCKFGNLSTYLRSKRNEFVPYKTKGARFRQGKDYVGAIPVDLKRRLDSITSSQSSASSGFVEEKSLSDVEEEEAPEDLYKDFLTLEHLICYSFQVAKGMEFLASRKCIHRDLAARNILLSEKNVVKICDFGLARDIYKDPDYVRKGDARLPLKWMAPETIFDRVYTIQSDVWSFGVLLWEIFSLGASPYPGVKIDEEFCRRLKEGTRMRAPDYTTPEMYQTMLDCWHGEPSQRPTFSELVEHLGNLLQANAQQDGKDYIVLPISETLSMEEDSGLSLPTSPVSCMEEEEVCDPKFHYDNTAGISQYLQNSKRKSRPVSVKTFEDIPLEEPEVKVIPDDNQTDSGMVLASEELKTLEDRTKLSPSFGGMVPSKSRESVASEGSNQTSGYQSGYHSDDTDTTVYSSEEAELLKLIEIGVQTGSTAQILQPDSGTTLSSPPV
Sequence of Phosphatidylinositol 4,5-bisphosphate 3-kinase catalytic subunit gamma isoform (P48736 whole entry, canonical isoform): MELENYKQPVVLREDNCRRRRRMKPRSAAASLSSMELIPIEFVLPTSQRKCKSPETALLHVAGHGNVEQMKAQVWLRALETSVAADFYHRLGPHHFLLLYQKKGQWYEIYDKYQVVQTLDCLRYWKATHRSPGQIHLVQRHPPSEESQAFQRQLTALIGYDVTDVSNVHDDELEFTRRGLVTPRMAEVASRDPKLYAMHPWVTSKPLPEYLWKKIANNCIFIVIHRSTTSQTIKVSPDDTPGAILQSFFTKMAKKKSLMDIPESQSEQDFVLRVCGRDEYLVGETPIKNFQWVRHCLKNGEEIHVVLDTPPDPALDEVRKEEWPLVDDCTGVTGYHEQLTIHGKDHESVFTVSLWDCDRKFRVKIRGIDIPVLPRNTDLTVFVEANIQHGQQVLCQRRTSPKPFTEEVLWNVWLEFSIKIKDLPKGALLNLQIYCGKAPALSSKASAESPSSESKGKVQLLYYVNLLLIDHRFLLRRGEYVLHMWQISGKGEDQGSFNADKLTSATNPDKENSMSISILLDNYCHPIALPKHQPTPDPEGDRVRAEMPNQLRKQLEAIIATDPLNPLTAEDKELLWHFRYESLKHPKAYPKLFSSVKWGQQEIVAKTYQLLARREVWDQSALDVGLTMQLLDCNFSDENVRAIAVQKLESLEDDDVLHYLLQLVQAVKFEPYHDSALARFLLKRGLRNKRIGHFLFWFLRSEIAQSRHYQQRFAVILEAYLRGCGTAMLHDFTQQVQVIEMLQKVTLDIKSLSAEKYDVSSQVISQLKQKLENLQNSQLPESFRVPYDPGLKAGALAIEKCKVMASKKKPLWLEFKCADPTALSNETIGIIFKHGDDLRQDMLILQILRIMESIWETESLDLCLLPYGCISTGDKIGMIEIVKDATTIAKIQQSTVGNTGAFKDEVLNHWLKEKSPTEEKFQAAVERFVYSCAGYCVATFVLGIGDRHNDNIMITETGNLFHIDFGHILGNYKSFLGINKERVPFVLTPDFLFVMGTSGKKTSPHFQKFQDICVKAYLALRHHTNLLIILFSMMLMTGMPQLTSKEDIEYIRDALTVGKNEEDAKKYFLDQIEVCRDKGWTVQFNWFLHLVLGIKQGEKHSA
Sequence of Serine/threonine-protein kinase PLK1 (P53350 whole entry): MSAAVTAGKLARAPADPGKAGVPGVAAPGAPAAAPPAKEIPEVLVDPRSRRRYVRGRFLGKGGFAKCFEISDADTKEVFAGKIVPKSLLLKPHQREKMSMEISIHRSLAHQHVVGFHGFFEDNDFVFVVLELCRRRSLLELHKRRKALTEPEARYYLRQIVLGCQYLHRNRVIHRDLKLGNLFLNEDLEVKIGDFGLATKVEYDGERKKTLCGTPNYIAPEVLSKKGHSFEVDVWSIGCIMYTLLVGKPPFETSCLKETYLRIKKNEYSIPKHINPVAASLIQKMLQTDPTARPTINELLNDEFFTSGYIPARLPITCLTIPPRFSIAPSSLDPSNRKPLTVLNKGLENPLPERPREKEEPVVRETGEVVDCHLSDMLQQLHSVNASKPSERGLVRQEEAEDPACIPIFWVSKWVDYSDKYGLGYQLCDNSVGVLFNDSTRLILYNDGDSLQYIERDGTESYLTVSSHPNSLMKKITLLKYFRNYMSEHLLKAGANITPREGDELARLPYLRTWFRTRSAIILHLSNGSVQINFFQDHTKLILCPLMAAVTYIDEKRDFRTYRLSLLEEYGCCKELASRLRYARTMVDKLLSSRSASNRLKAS

The EC50 is the concentration at which the effect is half-maximal. Usually EC99 stands for the concentration at which the effect reaches the 99% level. In general, pKa refers to the negative logarithm of the acid dissociation constant. A lower pKa goes with a stronger acid or weaker base. As a reminder, the Ki is a measure of affinity in units of concentration, obtained from inhibition or displacement. Broadly, the IC50 is the concentration that gives 50% inhibition. On to `O=c1[nH]c(=O)n(C[C@H]2C3CCC(CC3)[C@@H]2Nc2nc(-c3c[nH]c4ncc(F)cc34)ncc2F)o1` (mixture of isomers), for which the EC50 in [1] was found to be 36 nM. The EC99 in data set [1] is 0.21 µM. The pKa in data set [2] turned out to be 5.2. Also, the Ki was 1500 nM in [3]; more than 4000 nM in data set [4]; more than 4000 nM in [5]; 210 nM in data set [6]; 270 nM in [7]; more than 4000 nM in data set [9]. The inhibitory constant (Ki) was more than 4000 nM in data set [10]; 2000 nM in [11]; 180 nM in data set [12]; 1100 nM in data set [13]; more than 4000 nM in data set [14]; more than 4000 nM in [15]. Also, the Ki in data set [16] is 630 nM; in [17], more than 4000 nM; in data set [18] it was 23 nM; in data set [19], more than 4000 nM; in [20], more than 4000 nM. Moreover, the 50% inhibitory concentration (IC50) in data set [8] is 48 nM.

Values taken from ChEMBL document CHEMBL3399966, “Isosteric replacements of the carboxylic acid of drug candidate VX-787: Effect of charge on antiviral potency and kinase activity of azaindole-based influenza PB2 inhibitors” (Bioorg Med Chem Lett, 2015).
